Measurements published in US5854244A, “Melamine derivatives for use in the treatment of cancer” (priority 1992, dated 1998).
Like-named read-outs stand apart in the source and are kept apart here.

Experiments:
PC6 murine plasmacytoma = experiment: MTT cytotoxicity assay, PC6; type: cell-based; conditions: Mus musculus, continual drug exposure, parenthesis = standard deviation or ± values
Experimental: (§1) The cytotoxicity of CB7646 and CB7683 was compared with trimelamol against mammalian tumour cell lines using the MTT assay. This assay is based upon the selective ability of living but not dead cells to reduce the tetrazolium salt MTT (3-[4,5-dimethylthiazol-2-yl]-25-diphenyl tetrazolium bromide) to purple formazan (Mosmann et al, 1983, J. Immun. Methods 65; 55-63; Carmichael et al (1987) Cancer Res. 47; 936-942). Cell lines were grown in culture with continual drug exposure. The IC50 values (in μm) of the compounds (i.e. concentration giving 50% inhibition of cell growth as compared with untreated control) were determined, and are shown in Table 2. Figures in parenthesis refer to standard deviation or ± values for 2 or more measurements.
PC6 murine plasmacytoma

[1] = test system: H69 human small cell lung cancer; experiment: MTT cytotoxicity assay, H69; type: cell-based
Experimental: (§2) The cytotoxicity of CB7646 and CB7683 was compared with trimelamol against mammalian tumour cell lines using the MTT assay. […] Cell lines were grown in culture with continual drug exposure. […] Figures in parenthesis refer to standard deviation or ± values for 2 or more measurements.

[2] = test system: CH1 human epithelial ovarian cancer; experiment: MTT cytotoxicity assay, CH1; type: cell-based; conditions: continual drug exposure, parenthesis = standard deviation or ± values
Experimental: as §1
CH1, 41M human epithelial ovarian cancer

[3] = Dimer/polymer formation in solution (overnight standing); type: physicochemical; conditions: aqueous solution, 4-5 mg/ml, overnight (14-16 hours), room temperature
Experimental: (ii) Dimer/polymer Formation in Solution
An aqueous solution of CB7646 and trimelamol in 4ml aliquots at a concentration of 4-5 mg/ml was left to stand overnight (14-16 hours) at room temperature.

[4] = test system: Walker 256 rat mammary carcinoma; experiment: MTT cytotoxicity assay, Walker 256; type: cell-based
Experimental: as §2

ADJ/PC6 tumour = experiment: Antitumour activity towards the ADJ/PC6 tumour in mice; type: in vivo; conditions: for % Inhibition (Tumour wt as % of Control Value): 5 consecutive days, day 30; for T.I.: Example 7 (repeat of Example 6); for ED90: Mus musculus
From the text: (§3) The anti-tumour activity of CB 7646 prepared in accordance with Example 1 against ADJ/PC6 tumour in mice were compared with that of trimelamol. An implant of 1 mm^3 of tumour was made on day 1. On day 20, animals bearing tumours of comparative size were placed into groups of 4 and treated with drug on 5 consecutive days, and then left until day 30. Tumours from the treated and controls were dissected and weighed as a measure of tumour growth. Compounds were given in 5% DMSO/dextrose.
(§4) Example 6 was repeated to obtain more precise LD50 values.

Lethality (LD50) in mice = conditions: mouse, in vivo
From the text: as §3, §4

PXN65 Xenografts = experiment: In vivo activity against PXN65 ovarian cancer xenografts; parameters: species or system mice; conditions: for time to tumour regression: treated mice
Experimental: CB7646 was tested in vivo against ovarian cancer xenografts of the PXN65 cell line transplanted into mice, substantially in accordance with Harrap et al, Annals of Oncology, 1990, 1;65-76. PXN65 is a cisplatin-sensitive line.

[5] = Stability in solution (half-life by HPLC)
Experimental: Compounds were dissolved in DMSO to a concentration of 50 mM. Aliquots were then dispersed into the appropriate medium to give a final concentration of 100 μM in a volume of about 10 ml. […] (to simulate room temperature) or at 37° C. in water, 0.9% NaCl or 5% dextrose. Aliquots were removed from each preparation at intervals to assess their stability (i.e. half-life, T^1/2) which was measured using HPLC analysis. This entailed an isocratic elution using a mobile phase comprising 10% acetonitrile, 90% 0.05M ammonium bicarbonate. The 15 cm column was packed with C8 octyl Spherisorb material. The column was encased in a cooling cabinet which was maintained at 14°-17° C. Standards of freshly prepared solutions were run throughout the analysis period by way of controls.
T^1/2 measurements were read from a semi-logarithmic plot of peak area (y) versus time (x).

[6] = Judson et al 1989, 1991; cited from earlier work
ovarian carcinomas = conditions: cited from earlier work
[7] = MTT, continual drug exposure, parenthesis = standard deviation or ± values, read-out: IC50
[8] = WALKER 256, MTT, continual drug exposure, parenthesis = standard deviation or ± values, read-out: IC50
[9] = ADJ/PC6, Example 7 (repeat of Example 6)
[10] = Example 7 (repeat of Example 6)

| SMILES | IC50 (PC6 murine plasmacytoma) [µM] | IC50 [1, 7] [µM] | IC50 [2] [µM] | Dimer/polymer formation (precipitate) [3] | IC50 [4, 8] [µM] | % Inhibition (Tumour wt as % of Control Value) (ADJ/PC6 tumour; 3.25 mg/kg) [%] | % Inhibition (Tumour wt as % of Control Value) (ADJ/PC6 tumour; 6.25 mg/kg) [%] | % Inhibition (Tumour wt as % of Control Value) (ADJ/PC6 tumour; 12.5 mg/kg) [%] | % Inhibition (Tumour wt as % of Control Value) (ADJ/PC6 tumour; 25 mg/kg) [%] | % Inhibition (Tumour wt as % of Control Value) (ADJ/PC6 tumour; 50 mg/kg) [%] | % Inhibition (Tumour wt as % of Control Value) (ADJ/PC6 tumour; 100 mg/kg) [%] | T.I. (ADJ/PC6 tumour) | ED90 (ADJ/PC6 tumour; [9]) [mg/kg] | LD50 (Lethality (LD50) in mice; [10]) [mg/kg] | Deaths (PXN65 Xenografts; 15 mg/kg, 20 doses) | GD (Growth delay) (PXN65 Xenografts; 15 mg/kg, 20 doses) [days] | time to tumour regression (PXN65 Xenografts; PXN65 xenografts) [days] | other results |
| --- | --- | --- | --- | --- | --- | --- | --- | --- | --- | --- | --- | --- | --- | --- | --- | --- | --- | --- |
| OCN(CC(F)(F)F)c1nc(NCC(F)(F)F)nc(N(CO)CC(F)(F)F)n1 [CB7683, 2,4-Bis[(hydroxymethyl)(2,2,2 trifluoroethyl)amino]-6-(2,2,2-trifluoroethyl)amino-1,3,5-triazine] | 31.6 | 8.9 | 40.9 | – | – | – | – | – | – | – | – | – | – | – | – | – | – | – |
| CNc1nc(N(C)CO)nc(N(C)CO)n1 [CB7646, 2,4-Bis[(hydroxymethyl) (methyl)amino]6-methylamino-1,3,5-triazine] | 25.1 | 14.7 | 35.8 | did not form a precipitate | 10.7 | 5.6 | -1.0 | 13.7 | 5.6 | 76.8 | 98.0 | 4.6 | 31 | 142 | 0 | > 140 | ≤ 28 | IC50 ([4]; Walker 256, CB7646 prepared by recrystallisation method of Example 2, read-out: IC50 (repeat, recrystallised preparation)): 10.5 µM; IC50 ([1]; CB7646 prepared by recrystallisation method of Example 2, read-out: IC50 (repeat, recrystallised preparation)): 16.5 µM; Therapeutic Index (TI) (ADJ/PC6 tumour; ADJ/PC6 tumour, Example 6): > 1.4; ED90 (ADJ/PC6 tumour; ADJ/PC6, ADJ/PC6 tumour, Example 6): 74 mg/kg; LD50 (Lethality (LD50) in mice; Example 6): > 100 mg/kg; efficacy (summary) (PXN65 Xenografts; PXN65 xenografts, relative to trimelamol): comparable efficacy to trimelamol; half-life at 100 µM ([5]; 0.9% nacl, pH 5, T^1/2, 0.9% NaCl, pH 5.0, r.t.): 16 h; half-life at 100 µM ([5]; 5% dextrose, pH 4, T^1/2, 5% Dextrose, pH 4.0, r.t.): 22 h; half-life at 100 µM ([5]; deionised water, pH 7.5, T^1/2, Deionised water, pH 7.5, r.t.): 18 h; half-life at 100 µM ([5]; deionised water, pH 7.5, T^1/2, deionised water, pH 7.5, 37 °C): 3 h; stability (summary of Table 1) ([5]; relative to trimelamol): superior stability |
| CN(CO)c1nc(N(C)CO)nc(N(C)CO)n1 [Trimelamol, 2,4,6-tris{(hydroxymethyl) (methyl)amino}-1,3,5-triazine, reference compound] | 12.9 | 8.5 | 23.4 | formed a heavy precipitate | 9.4 | 0 | 18.2 | 13.7 | 45.5 | 83.9 | 96.0 | 2.9 | 24 | 70 | 0 | > 170 | ≤ 28 | Deaths (PXN65 Xenografts; 30 mg/kg, 5 doses): 0; GD (Growth delay) (PXN65 Xenografts; 30 mg/kg, 5 doses): > 273 days; polymerisation during Phase I and II clinical trials [6]: proved problematic; half-life of trimelamol activity in humans (ovarian carcinomas; humans, Judson et al 1989): short; clinical activity (ovarian carcinomas; particularly against ovarian carcinomas): clinically active; half-life at 100 µM ([5]; 0.9% nacl, pH 4.9): 4.55 h; half-life at 100 µM ([5]; 5% dextrose, pH 4): 5.8 h; half-life at 100 µM ([5]; deionised water, pH 7.5): 2 h |
